The source made the active and inactive calls. No rule for the calls is given here. Non-standard residues stand in square brackets, D forms with d. Residues, ends and D or L forms follow the SMILES beside them. hArg = N=C(N)NCCCC[C@H](N)C(=O)O; Agb = N=C(N)NCC[C@H](N)C(=O)O; Agp = N=C(N)NC[C@H](N)C(=O)O; Orn = NCCC[C@H](N)C(=O)O; Dab = NCC[C@H](N)C(=O)O; Dap = NC[C@H](N)C(=O)O
Legend:
[1] = test system: Staphylococcus aureus; assay: Antibacterial activity against methicillin-resistant Staphylococcus aureus assessed as alteration in bacterial growth incubated for overnight by microtiter plate based spectrophotometric analysis; assay type: functional, organism-based
[2] = test system: Staphylococcus aureus; assay: Antibiofilm activity against methicillin-resistant Staphylococcus aureus assessed as inhibition of biofilm formation by measuring residual biofilm growth incubated for overnight at 10-fold dilution by crystal violet staining based microtiter plate assay relative to control; assay type: functional
[3] = test system: Staphylococcus aureus; assay: Antibiofilm activity against methicillin-resistant Staphylococcus aureus assessed as inhibition of biofilm formation incubated for overnight by crystal violet staining based microtiter plate assay; assay type: functional, organism-based

Row | Structure (SMILES) | Activity [1] | residual biofilm growth (% of control) [2] [%] | inhibition [3]
1 | CC[C@H](C)[C@H](NC(=O)[C@H](CCCNC(=N)N)NC(=O)[C@@H](NC(=O)[C@H](C)NC(=O)[C@@H](NC(=O)[C@H](CCN)NC(=O)[C@H](CC(C)C)NC(=O)[C@H](CCCNC(=N)N)NC(=O)[C@@H](N)C(C)C)C(C)C)C(C)C)C(=O)N[C@@H](Cc1c[nH]c2ccccc12)C(=O)N[C@@H](CCCNC(=N)N)C(=O)N[C@@H](CCCNC(=N)N)C(N)=O (H-VRL[Dab]VAVRIWRR-NH2) | Active | 103.3 | Dose-dependent effect
2 | CC[C@H](C)[C@H](NC(=O)[C@H](CCCNC(=N)N)NC(=O)[C@@H](NC(=O)[C@H](C)NC(=O)[C@@H](NC(=O)[C@H](CN)NC(=O)[C@H](CC(C)C)NC(=O)[C@H](CCCNC(=N)N)NC(=O)[C@@H](N)C(C)C)C(C)C)C(C)C)C(=O)N[C@@H](Cc1c[nH]c2ccccc12)C(=O)N[C@@H](CCCNC(=N)N)C(=O)N[C@@H](CCCNC(=N)N)C(N)=O (H-VRL[Dap]VAVRIWRR-NH2) | Active | 108.3 | Dose-dependent effect
3 | CC[C@H](C)[C@H](NC(=O)[C@H](CCCNC(=N)N)NC(=O)[C@@H](NC(=O)[C@H](C)NC(=O)[C@@H](NC(=O)[C@H](CCCN)NC(=O)[C@H](CC(C)C)NC(=O)[C@H](CCCNC(=N)N)NC(=O)[C@@H](N)C(C)C)C(C)C)C(C)C)C(=O)N[C@@H](Cc1c[nH]c2ccccc12)C(=O)N[C@@H](CCCNC(=N)N)C(=O)N[C@@H](CCCNC(=N)N)C(N)=O (H-VRL[Orn]VAVRIWRR-NH2) | Active | 36.9 | Dose-dependent effect
4 | CC[C@H](C)[C@H](NC(=O)[C@H](CCCNC(=N)N)NC(=O)[C@@H](NC(=O)[C@H](C)NC(=O)[C@@H](NC(=O)[C@H](CCCCNC(=N)N)NC(=O)[C@H](CC(C)C)NC(=O)[C@H](CCCNC(=N)N)NC(=O)[C@@H](N)C(C)C)C(C)C)C(C)C)C(=O)N[C@@H](Cc1c[nH]c2ccccc12)C(=O)N[C@@H](CCCNC(=N)N)C(=O)N[C@@H](CCCNC(=N)N)C(N)=O (H-VRL[hArg]VAVRIWRR-NH2) | Active | 107.6 | Dose-dependent effect
5 | CC[C@H](C)[C@H](NC(=O)[C@H](CCCNC(=N)N)NC(=O)[C@@H](NC(=O)[C@H](C)NC(=O)[C@@H](NC(=O)[C@@H](NC(=O)[C@H](CCNC(=N)N)NC(=O)[C@H](CCCNC(=N)N)NC(=O)[C@@H](N)C(C)C)[C@@H](C)CC)C(C)C)C(C)C)C(=O)N[C@@H](Cc1c[nH]c2ccccc12)C(=O)N[C@@H](CCCNC(=N)N)C(=O)N[C@@H](CCCNC(=N)N)C(N)=O (H-VR[Agb]IVAVRIWRR-NH2) | Active | 99.8 | Dose-dependent effect
6 | CC[C@H](C)[C@H](NC(=O)[C@H](CCCNC(=N)N)NC(=O)[C@@H](NC(=O)[C@H](C)NC(=O)[C@@H](NC(=O)[C@@H](NC(=O)[C@H](CNC(=N)N)NC(=O)[C@H](CCCNC(=N)N)NC(=O)[C@@H](N)C(C)C)[C@@H](C)CC)C(C)C)C(C)C)C(=O)N[C@@H](Cc1c[nH]c2ccccc12)C(=O)N[C@@H](CCCNC(=N)N)C(=O)N[C@@H](CCCNC(=N)N)C(N)=O (H-VR[Agp]IVAVRIWRR-NH2) | Active | 102.2 | Dose-dependent effect
7 | CC[C@H](C)[C@H](NC(=O)[C@H](CCCNC(=N)N)NC(=O)[C@@H](NC(=O)[C@H](C)NC(=O)[C@@H](NC(=O)[C@@H](NC(=O)[C@H](CCN)NC(=O)[C@H](CCCNC(=N)N)NC(=O)[C@@H](N)C(C)C)[C@@H](C)CC)C(C)C)C(C)C)C(=O)N[C@@H](Cc1c[nH]c2ccccc12)C(=O)N[C@@H](CCCNC(=N)N)C(=O)N[C@@H](CCCNC(=N)N)C(N)=O (H-VR[Dab]IVAVRIWRR-NH2) | Active | 48.6 | Dose-dependent effect
8 | CC[C@H](C)[C@H](NC(=O)[C@H](CCCNC(=N)N)NC(=O)[C@@H](NC(=O)[C@H](C)NC(=O)[C@@H](NC(=O)[C@@H](NC(=O)[C@H](CN)NC(=O)[C@H](CCCNC(=N)N)NC(=O)[C@@H](N)C(C)C)[C@@H](C)CC)C(C)C)C(C)C)C(=O)N[C@@H](Cc1c[nH]c2ccccc12)C(=O)N[C@@H](CCCNC(=N)N)C(=O)N[C@@H](CCCNC(=N)N)C(N)=O (H-VR[Dap]IVAVRIWRR-NH2) | Active | 104.7 | Dose-dependent effect
9 | CC[C@H](C)[C@H](NC(=O)[C@H](CCCNC(=N)N)NC(=O)[C@@H](NC(=O)[C@H](C)NC(=O)[C@@H](NC(=O)[C@@H](NC(=O)[C@H](CCCN)NC(=O)[C@H](CCCNC(=N)N)NC(=O)[C@@H](N)C(C)C)[C@@H](C)CC)C(C)C)C(C)C)C(=O)N[C@@H](Cc1c[nH]c2ccccc12)C(=O)N[C@@H](CCCNC(=N)N)C(=O)N[C@@H](CCCNC(=N)N)C(N)=O (H-VR[Orn]IVAVRIWRR-NH2) | Active | 99.3 | Dose-dependent effect
10 | CC[C@H](C)[C@H](NC(=O)[C@H](CCCNC(=N)N)NC(=O)[C@@H](NC(=O)[C@H](C)NC(=O)[C@@H](NC(=O)[C@@H](NC(=O)[C@H](CCCCNC(=N)N)NC(=O)[C@H](CCCNC(=N)N)NC(=O)[C@@H](N)C(C)C)[C@@H](C)CC)C(C)C)C(C)C)C(=O)N[C@@H](Cc1c[nH]c2ccccc12)C(=O)N[C@@H](CCCNC(=N)N)C(=O)N[C@@H](CCCNC(=N)N)C(N)=O (H-VR[hArg]IVAVRIWRR-NH2) | Active | 108.6 | Dose-dependent effect
11 | CC[C@H](C)[C@H](NC(=O)[C@H](CCCNC(=N)N)NC(=O)[C@@H](NC(=O)[C@H](C)NC(=O)[C@@H](NC(=O)[C@@H](NC(=O)[C@H](CC(C)C)NC(=O)[C@H](CCNC(=N)N)NC(=O)[C@@H](N)C(C)C)[C@@H](C)CC)C(C)C)C(C)C)C(=O)N[C@@H](Cc1c[nH]c2ccccc12)C(=O)N[C@@H](CCCNC(=N)N)C(=O)N[C@@H](CCCNC(=N)N)C(N)=O (H-V[Agb]LIVAVRIWRR-NH2) | Active | 29.6 | Dose-dependent effect
12 | CC[C@H](C)[C@H](NC(=O)[C@H](CCCNC(=N)N)NC(=O)[C@@H](NC(=O)[C@H](C)NC(=O)[C@@H](NC(=O)[C@@H](NC(=O)[C@H](CC(C)C)NC(=O)[C@H](CNC(=N)N)NC(=O)[C@@H](N)C(C)C)[C@@H](C)CC)C(C)C)C(C)C)C(=O)N[C@@H](Cc1c[nH]c2ccccc12)C(=O)N[C@@H](CCCNC(=N)N)C(=O)N[C@@H](CCCNC(=N)N)C(N)=O (H-V[Agp]LIVAVRIWRR-NH2) | Active | 28.3 | Dose-dependent effect
13 | CC[C@H](C)[C@H](NC(=O)[C@H](CCCNC(=N)N)NC(=O)[C@@H](NC(=O)[C@H](C)NC(=O)[C@@H](NC(=O)[C@@H](NC(=O)[C@H](CC(C)C)NC(=O)[C@H](CCN)NC(=O)[C@@H](N)C(C)C)[C@@H](C)CC)C(C)C)C(C)C)C(=O)N[C@@H](Cc1c[nH]c2ccccc12)C(=O)N[C@@H](CCCNC(=N)N)C(=O)N[C@@H](CCCNC(=N)N)C(N)=O (H-V[Dab]LIVAVRIWRR-NH2) | Active | 21.5 | Dose-dependent effect
14 | CC[C@H](C)[C@H](NC(=O)[C@H](CCCNC(=N)N)NC(=O)[C@@H](NC(=O)[C@H](C)NC(=O)[C@@H](NC(=O)[C@@H](NC(=O)[C@H](CC(C)C)NC(=O)[C@H](CN)NC(=O)[C@@H](N)C(C)C)[C@@H](C)CC)C(C)C)C(C)C)C(=O)N[C@@H](Cc1c[nH]c2ccccc12)C(=O)N[C@@H](CCCNC(=N)N)C(=O)N[C@@H](CCCNC(=N)N)C(N)=O (H-V[Dap]LIVAVRIWRR-NH2) | Active | 19.1 | Dose-dependent effect
15 | CC[C@H](C)[C@H](NC(=O)[C@H](CCCNC(=N)N)NC(=O)[C@@H](NC(=O)[C@H](C)NC(=O)[C@@H](NC(=O)[C@@H](NC(=O)[C@H](CC(C)C)NC(=O)[C@H](CCCN)NC(=O)[C@@H](N)C(C)C)[C@@H](C)CC)C(C)C)C(C)C)C(=O)N[C@@H](Cc1c[nH]c2ccccc12)C(=O)N[C@@H](CCCNC(=N)N)C(=O)N[C@@H](CCCNC(=N)N)C(N)=O (H-V[Orn]LIVAVRIWRR-NH2) | Active | 13.2 | Dose-dependent effect
16 | CC[C@H](C)[C@H](NC(=O)[C@H](CCCNC(=N)N)NC(=O)[C@@H](NC(=O)[C@H](C)NC(=O)[C@@H](NC(=O)[C@@H](NC(=O)[C@H](CC(C)C)NC(=O)[C@H](CCCCNC(=N)N)NC(=O)[C@@H](N)C(C)C)[C@@H](C)CC)C(C)C)C(C)C)C(=O)N[C@@H](Cc1c[nH]c2ccccc12)C(=O)N[C@@H](CCCNC(=N)N)C(=O)N[C@@H](CCCNC(=N)N)C(N)=O (H-V[hArg]LIVAVRIWRR-NH2) | Active | 38.4 | Dose-dependent effect
17 | CC[C@H](C)[C@H](NC(=O)[C@H](CCCNC(=N)N)NC(=O)[C@@H](NC(=O)[C@H](C)NC(=O)[C@@H](NC(=O)[C@@H](NC(=O)[C@H](CC(C)C)NC(=O)[C@H](CCCNC(=N)N)NC(=O)[C@@H](N)CCNC(=N)N)[C@@H](C)CC)C(C)C)C(C)C)C(=O)N[C@@H](Cc1c[nH]c2ccccc12)C(=O)N[C@@H](CCCNC(=N)N)C(=O)N[C@@H](CCCNC(=N)N)C(N)=O (H-[Agb]RLIVAVRIWRR-NH2) | Active | 13.6 | Dose-dependent effect
18 | CC[C@H](C)[C@H](NC(=O)[C@H](CCCNC(=N)N)NC(=O)[C@@H](NC(=O)[C@H](C)NC(=O)[C@@H](NC(=O)[C@@H](NC(=O)[C@H](CC(C)C)NC(=O)[C@H](CCCNC(=N)N)NC(=O)[C@@H](N)CNC(=N)N)[C@@H](C)CC)C(C)C)C(C)C)C(=O)N[C@@H](Cc1c[nH]c2ccccc12)C(=O)N[C@@H](CCCNC(=N)N)C(=O)N[C@@H](CCCNC(=N)N)C(N)=O (H-[Agp]RLIVAVRIWRR-NH2) | Active | 10.6 | Dose-dependent effect
